“Also recorded” adds a separate entry of the source.
How the values were obtained:
H9 cells = experiment: Survival/viability of HIV-infected H9 cells (trypan blue exclusion), % control; details: for viability at 0.01 µg/mL / viability at 0.1 µg/mL / viability at 1 µg/mL / viability at 10 µg/mL / viability at 5 µg/mL: Homo sapiens, H9, 96 h, read-out: Cell Survival (% Control); for viability of cells in the presence of HIV (in words): in vitro
HIV virus = details: for activity against HIV / inhibition of viral replication (in words): in vitro; for inhibition of viral replication (in words): about 1 μg/ml
Solubility = type: physicochemical; details: Tables I-III
target cells = experiment: Toxicity to the cells; type: cell-based

Compound	Cell Survival (% Control) (H9 cells; Table IV, conc. not printed (line between 10 and 0.1), added with HIV, 4 days)	viability at 0.01 µg/mL (H9 cells)	viability at 0.1 µg/mL (H9 cells)	viability at 1 µg/mL (H9 cells)	viability at 10 µg/mL (H9 cells)	activity against HIV / inhibition of viral replication (in words) (HIV virus)	Solubility (Solubility)	inhibition of viral replication (in words) (HIV virus)	viability at 5 µg/mL (H9 cells)	viability of cells in the presence of HIV (in words) (H9 cells)	effect against HIV infection at noncytotoxic doses (in words) (HIV virus)	toxicity to the cells (in words) (target cells)
C[C@@H]1[C@H](O)[C@@H](C)/C=C/C=C/CC/C=C/C=C/C=C/C=C/[C@H](O[C@@H]2O[C@H](C)[C@@H](O)[C@H](N)[C@@H]2O)C[C@@H]2O[C@](O)(C[C@@H](O)C[C@@H](O)[C@H](O)CC[C@@H](O)C[C@@H](O)CC(=O)O[C@H]1C)C[C@H](O)[C@H]2C(=O)O [Amphotericin A, reference compound]	75 % Control	–	–	–	–	–	–	–	–	–	–	–
C[C@@H]1[C@H](O)[C@@H](C)/C=C/C=C/C=C/C=C/C=C/C=C/C=C/[C@H](O[C@@H]2O[C@H](C)[C@@H](O)[C@H](N)[C@@H]2O)C[C@@H]2O[C@](O)(C[C@@H](O)C[C@@H](O)[C@H](O)CC[C@@H](O)C[C@@H](O)CC(=O)O[C@H]1C)C[C@H](O)[C@H]2C(=O)O [Amphotericin B, reference compound]	–	13%	11%	33%	73%	–	–	–	–	–	–	–
CCCCC[C@@H](O)[C@H]1C(=O)O[C@H](C)[C@@H](O)/C=C/C=C/C=C/C=C/C=C(\C)[C@@H](O)C[C@H](O)C[C@H](O)C[C@H](O)C[C@H](O)C[C@H](O)C[C@@H]1O [Filipin, reference compound]	–	–	48%	51%	49%	not active against HIV	–	–	–	–	–	–
CC(C)C1OC(=O)/C=C/C=C/C=C/C=C/C=C/C=C/CC(O)C(C)C(O)CC(O)CC(O)CC(O)CC(O)CC(O)CC(O)CC(O)/C=C/C1C (stereo not drawn) [Dermostatin A]	–	0%	18%	92%	–	inhibit the ability of the HIV virus to replicate within the lymphocyte after penetration by the virus	Soluble in MeOH, DMSO, DMF; also recorded: Insoluble in H2 O, pet ether, hexane	high levels of inhibition to viral replication have been achieved	99%	improve the viability of lymphocyte cells in the presence of HIV; also recorded: protective effect	–	–
CCC(C)C1OC(=O)/C=C/C=C/C=C/C=C/C=C/C=C/CC(O)C(C)C(O)CC(O)CC(O)CC(O)CC(O)CC(O)CC(O)CC(O)/C=C/C1C (stereo not drawn) [Dermostatin B]	–	0%	0%	87%	–	inhibit the ability of the HIV virus to replicate within the lymphocyte after penetration by the virus	Soluble in MeOH, DMSO, DMF; also recorded: Insoluble in H2 O, pet ether, hexane	high levels of inhibition to viral replication have been achieved	97%	improve the viability of lymphocyte cells in the presence of HIV; also recorded: protective effect	–	–
Candicidin	–	–	–	–	–	–	–	–	–	–	no advantage whatsoever is seen	toxic to the cells; also recorded: its own cytotoxic effects takes its toll on the target cells

From patent publication US5159002A, “Method for purifying dermostatin A and dermostatin B” (Xechem Inc., priority 1990, dated 1992)
